Reference: article PMC9583092 (ACS Omega, 2022)
Where “and” joins values, the source holds several entries; their conditions need not be identical. Equal values may be shown once. Read-outs that look alike come from different tables or passages of the source. Non-standard residues stand in square brackets, D forms with d. Residues, ends and D or L forms follow the SMILES beside them. *: point of attachment. Gly(N(CH2)2(3-indolyl)) = O=C(O)CNCCc1c[nH]c2ccccc12; Gly(Nα-4-Cl-benzyl) = O=C(O)CNCc1ccc(Cl)cc1; N(4-Br-benzyl)Gly = O=C(O)CNCc1ccc(Br)cc1; N(tridecyl)Gly = CCCCCCCCCCCCCNCC(=O)O; N(4-F-Bzl)Gly = O=C(O)CNCc1ccc(F)cc1; NBzl(4-I)Gly = O=C(O)CNCc1ccc(I)cc1; Gly(N-2-aminoethyl) = NCCNCC(=O)O; NFurfurylGly = O=C(O)CNCc1ccco1; X1 = CCCCCCCCN(CCCCCCCC)CC(=O)*; Gly(N-cHex) = O=C(O)CNC1CCCCC1; X2 = CCCCCCN(CCCCCC)CC(=O)*; Nphe = O=C(O)CNCc1ccccc1; Nlys = NCCCCNCC(=O)O

Key:
C. neoformans [1] = experiment: MIC determination, broth microdilution; assay type: cell-based, Cryptococcus neoformans; details: RPMI-MOPS, 72 h at 35 °C, no visual growth, twofold dilutions 200–1.56 μg/mL, biological triplicate
[2] = tested on: HepG2 hepatocellular carcinoma cells; details: human liver cells; RMG8-8 parameters from previously published results; cited from earlier work
[3] = result in words; cited from earlier work
fungi = details: killed fungi rapidly; cited from earlier work
[4] = calculated distribution coefficient at pH 7.4; RMG8-8 parameters from previously published results; cited from earlier work
C. albicans = details: cited from earlier work
C. neoformans [5] = details: RMG8-8 parameters from previously published results; cited from earlier work

C. neoformans MIC (C. neoformans [1]) [µg/mL] | Compound | also measured
1.56 to 3.13 | CCCCCCCCCCCCCNCC(=O)N(CC(=O)N(CCCCN)CC(=O)N(CCN)CC(=O)N(CC(N)=O)Cc1ccc(F)cc1)Cc1ccc(F)cc1 [Compound 17] (H-[N(tridecyl)Gly][N(4-F-Bzl)Gly][Nlys][Gly(N-2-aminoethyl)][N(4-F-Bzl)Gly]-NH2) | 
6.25 | CCCCCCCCCCCCCNCC(=O)N(CC(=O)N(CCCCN)CC(=O)N(CCN)CC(=O)N(CC(N)=O)Cc1ccc(I)cc1)Cc1ccc(I)cc1 [Compound 20] (H-[N(tridecyl)Gly][NBzl(4-I)Gly][Nlys][Gly(N-2-aminoethyl)][NBzl(4-I)Gly]-NH2) | 
 | CCCCCCCCCCCCCNCC(=O)N(CC(=O)N(CCCCN)CC(=O)N(CCN)CC(=O)N(CC(N)=O)C1CCCCC1)C1CCCCC1 [RMG8-8] (H-[N(tridecyl)Gly][Gly(N-cHex)][Nlys][Gly(N-2-aminoethyl)][Gly(N-cHex)]-NH2) | HepG2 TD50 [2]: 189 µg/mL and 189 ± 43 µg/mL; proteolytic stability [3]: proteolytically stable; t1/2 of fungal killing (fungi): 6.5 min; cLogD7.4 [4]: –2.38; C. albicans MIC (C. albicans): 25 µg/mL; C. neoformans MIC (C. neoformans [5]): 1.56 µg/mL
3.13 to 6.25 | CCCCCCCCCCCCCNCC(=O)N(CC(=O)N(CCCCN)CC(=O)N(CCN)CC(=O)N(CC(N)=O)Cc1ccco1)Cc1ccco1 [Compound 24] (H-[N(tridecyl)Gly][NFurfurylGly][Nlys][Gly(N-2-aminoethyl)][NFurfurylGly]-NH2) | 
6.25 | CCCCCCCCN(CCCCCCCC)CC(=O)N(CC(=O)N(CCCCN)CC(=O)N(CCN)CC(=O)N(CC(N)=O)C1CCCCC1)C1CCCCC1 [Compound 7] (X1-[Gly(N-cHex)][Nlys][Gly(N-2-aminoethyl)][Gly(N-cHex)]-NH2) | 
12.5 | CCCCCCCCCCCCCNCC(=O)N(CC(=O)N(CCCC[N+](C)(C)C)CC(=O)N(CC[N+](C)(C)C)CC(=O)N(CC(N)=O)C1CCCCC1)C1CCCCC1 [Compound 1] | 
100 | CCCCCCN(CCCCCC)CC(=O)N(CC(=O)N(CCCCN)CC(=O)N(CCN)CC(=O)N(CC(N)=O)C1CCCCC1)C1CCCCC1 [Compound 6] (X2-[Gly(N-cHex)][Nlys][Gly(N-2-aminoethyl)][Gly(N-cHex)]-NH2) | 
3.13 | CCCCCCCCCCCCCNCC(=O)N(CC(=O)N(CCCCN)CC(=O)N(CCN)CC(=O)N(CC(N)=O)Cc1ccc(Cl)cc1)Cc1ccc(Cl)cc1 [Compound 18] (H-[N(tridecyl)Gly][Gly(Nα-4-Cl-benzyl)][Nlys][Gly(N-2-aminoethyl)][Gly(Nα-4-Cl-benzyl)]-NH2) | 
1.56 to 3.13 | CCCCCCCCCCCCCNCC(=O)N(CC(=O)N(CCCCN)CC(=O)N(CCN)CC(=O)N(CC(N)=O)Cc1ccccc1)Cc1ccccc1 [Compound 15] (H-[N(tridecyl)Gly][Nphe][Nlys][Gly(N-2-aminoethyl)][Nphe]-NH2) | 
3.13 | CCCCCCCCCCCCCNCC(=O)N(CC(=O)N(CCCCN)CC(=O)N(CCN)CC(=O)N(CC(N)=O)Cc1ccc(Br)cc1)Cc1ccc(Br)cc1 [Compound 19] (H-[N(tridecyl)Gly][N(4-Br-benzyl)Gly][Nlys][Gly(N-2-aminoethyl)][N(4-Br-benzyl)Gly]-NH2) | 
1.56 to 3.13 | CCCCCCCCCCCCCNCC(=O)N(CCc1c[nH]c2ccccc12)CC(=O)N(CCCCN)CC(=O)N(CCN)CC(=O)N(CCc1c[nH]c2ccccc12)CC(N)=O [Compound 23] (H-[N(tridecyl)Gly][Gly(N(CH2)2(3-indolyl))][Nlys][Gly(N-2-aminoethyl)][Gly(N(CH2)2(3-indolyl))]-NH2) | 
3.13 | CCCCCCCCCCCCCNCC(=O)N(CC(=O)N(CCCCN)CC(=O)N(CCCCN)CC(=O)N(CC(N)=O)C1CCCCC1)C1CCCCC1 [Compound 2] (H-[N(tridecyl)Gly][Gly(N-cHex)][Nlys][Nlys][Gly(N-cHex)]-NH2) | 
